Measurements published in publication PMC7898648, “Synthesis and Evaluation of Non‐Hydrolyzable Phospho‐Lysine Peptide Mimics” (Chemistry (Weinheim an Der Bergstrasse, Germany), 2020).

Key:
[1] = NMR titration for pKa determination of model peptides; assay type: physicochemical; conditions: 1 mM peptide in 40 mM KCl (H2O + 10 % D2O); for pKa2 (from 31P chemical shift vs pH, inflection point of sigmoidal fit): pH 2 to 11, 278 K, 600 MHz, 8a/8b: mono-protonated phosphoryl oxygen to di-anion, 8c: complete deprotonation of the phosphoryl oxygens
Experimental: Next, we aimed to evaluate the charge distribution of peptides 8 a–c at physiological pH. […] An elegant technique for the pK a determination is NMR titration since this non‐invasive analytical technique enables accurate measurements at desired temperatures at a given pH. Our experimental set up was inspired by the NMR titration conducted by Gamcsik et al. on phosphoramidic acid and other phosphoramides. ^[23] Samples were prepared at a 1 mM concentration in 40 mM KCl (water + 10 % deuterium oxide) and kept at low temperature to minimize P−N bond hydrolysis for 8 c. The pH of each sample was adjusted before measurement and checked again afterwards. Proton (^1H), phosphorous (^31P) 1D as well as ^1H‐^31P‐heteronuclear multiple bond […] (HMBC) NMR spectra were recorded from pH 2 to pH 11 on a 600 MHz (^1H frequency) spectrometer at 278 K and subsequently used for calculations of pK a values (Figure 2 A, exemplified for 8 a, see Figure S3 for 8 b). In order to do so, the chemical shift of ^31P was plotted against the pH values and resulting curves fitted with sigmoidal functions wherein pK a values were obtained from the inflection points (Figure 2 B). We further evaluated the data by plotting and fitting of the ^1H chemical shifts – ζ‐protons for phosphonate 8 a and ϵ‐protons for phosphate 8 b and phosphoramidate 8 c (Figure S4).
Figure 2 A. NMR titration experiments of peptide 8 a. Conditions: NMR spectra of a solution containing 1 mM peptide in 40 mM KCl (H2O+10 % D2O) were recorded at distinct pH values on a 600 MHz (^1H frequency) spectrometer at 278 K. Shown are the overlay of 1D‐^31P spectra at different pH values and extracted correlation signals between ϵ‐protons and phosphorous from ^1H,^31P‐HMBC experiments. B. Graphical visualization of ^31P NMR measurements for phosphonate 8 a (red), phosphate 8 b (blue) and phosphoramidate 8 c (black).

[2] = target: T1, alkaline phosphatase (ALP) (Bos taurus, UniProt P19111); assay: Enzymatic stability against alkaline phosphatase (released inorganic phosphate, EnzCheck kit); assay type: in vitro ADME; conditions: 1 mM substrate, 50 mM Tris, 1 mM MgCl2, 1 mM ZnCl2, pH 8.2, 30 °C, 0.05 U ALP, 2 h; photometric read-out of released Pi at 360 nm (SI: 100 μM, pH 7.8, 90 min); blank without enzyme subtracted
T1 construct: purchased Sigma-Aldrich (aliquots provided by Prof. Fiedler)
T1 sequence (P19111 20-506 limits assumed): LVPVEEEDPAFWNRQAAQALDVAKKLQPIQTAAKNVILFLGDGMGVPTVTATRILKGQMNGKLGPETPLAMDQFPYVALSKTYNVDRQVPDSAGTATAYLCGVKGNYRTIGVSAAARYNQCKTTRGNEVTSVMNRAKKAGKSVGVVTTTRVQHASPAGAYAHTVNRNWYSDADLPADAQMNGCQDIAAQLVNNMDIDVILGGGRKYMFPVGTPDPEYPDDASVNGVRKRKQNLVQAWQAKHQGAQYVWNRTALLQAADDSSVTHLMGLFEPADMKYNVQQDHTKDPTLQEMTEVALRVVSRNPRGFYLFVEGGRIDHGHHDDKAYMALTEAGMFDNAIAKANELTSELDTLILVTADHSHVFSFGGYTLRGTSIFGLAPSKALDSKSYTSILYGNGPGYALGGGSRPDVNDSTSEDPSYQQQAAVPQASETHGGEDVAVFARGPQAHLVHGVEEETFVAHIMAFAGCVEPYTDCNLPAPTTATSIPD
Experimental: With the three peptides 8 a–c in hand, we tested their enzymatic stability against the promiscuous alkaline phosphatase (ALP). The substrates 8 a–c were tested for stability towards ALP under optimized conditions. Briefly, 1 mM substrate was dissolved in 50 mM Tris, 1 mM MgCl2, 1 mM ZnCl2, pH 8.2, at 30 °C and was incubated with 0.05 U ALP for 2 h. and the amount of released inorganic phosphate (Pi) was determined via photometric read‐out. […] Furthermore, treatment of 8 b with ALP yielded in a Pi release, which indicated susceptibility of the phosphate analogue towards phosphatases.
Treatment of peptides 8a-c with alkaline phosphatase (ALP). […]
enzymatically hydrolyzed substrate, calculated by subtraction of detected inorganic phosphate (Pi) in blank reactions (without enzyme) from the reactions with enzyme ad de d . He r e i n , w e observed dephosphorylation for both peptides 8b and 8c, which indicated susceptibility of the phosphate analogue towards phosphatases. […]
Reactions were run for 90 min in total, UV -absorbance was measured every 10 min. The enzymatic hydrolysis yield [E] was determined by substraction of [BG]w/oBL from […]
UV/Vis spectra and absorbance values were determined either on a V -630 spectrophotometer at r.t. or a V-550 UV/Vis spectrophotometer equipped with an ETC-505T temperature controller at 20 °C (both Jasco, Tokyo, Japan). […]

[3] = potentiometrically detected; cited from earlier work

| stability towards ALP (enzymatic hydrolysis, Pi release) [2] | SMILES | pKa2 (from 31P chemical shift vs pH, inflection point of sigmoidal fit) [1] | pKa for the protonation on nitrogen [3] | pKa for the protonation on one phosphoryl oxygen [3] | pKa3 (deprotonation of the amine) ([1]; 31P shift vs pH, 278 K) |
| --- | --- | --- | --- | --- | --- |
| – | CC(=O)N[C@@H](Cc1ccc(O)cc1)C(=O)N[C@@H](CCSCCP(=O)(O)O)C(=O)NCC(N)=O [8a] | 7.08±0.03 | – | – | – |
| dephosphorylation | CC(=O)N[C@@H](Cc1ccc(O)cc1)C(=O)N[C@@H](CCCCOP(=O)(O)O)C(=O)NCC(N)=O [8b] | 6.54±0.13 | – | – | – |
| – | CCCCNP(=O)(O)O [N‐(n‐butyl)phosphoramidate] | – | 9.9 | 2.9 | – |
| – | CC(=O)N[C@@H](Cc1ccc(O)cc1)C(=O)N[C@@H](CCCCNP(=O)(O)O)C(=O)NCC(N)=O [8c, ^AcTyrpLysGly^CONH2] | 2.88±0.30 | – | – | 9.64±0.07 |
